Patent EP2292587A1, “PHARMACEUTICAL COMPOSITION FOR INHIBITING THE TRANSCRIPTION FACTOR INDUCIBLE BY HYPOXIA, MODULATORS OF PATHOLOGICAL PROCESSES OF ANGIOGENESIS, ONCOGENESIS, INFLAMMATION, APOPTOSIS, AND CELLULAR THERAPY” (Fundacion De La Comunidad Valenciana Centro De …, priority 2008, dated 2009)

Columns and labels:
[1] = tested on: JUNB; experiment: selectivity luciferase assay, Hek 293-CRE-LUC; format: cell-based; settings: 0-1 µM, 6 hours
Protocol: The selectivity assays with the active compound FM19G11 were performed in white 96-well plates using the recombinant strains Hek 293-TRE-LUC and Hek 293-CRE-LUC which represent the transcriptional activity of transcription factors of the AP-1 complex. The luciferase assay for measuring transcriptional activity was performed using the kit Bright-Glo™ Luciferase Assay System (Promega, Inc., Madison, WI), following the instructions supplied by the manufacturer and the Hek 293-TRE-LUC and Hek 293-CRE-LUC lines contain the response elements of transcription factors of the AP-1 complex, specifically of c-FOS and JUNB, respectively. The Hek 293-TRE-LUC and Hek 293-CRE-LUC lines were provided by Dr. Rosa Farrás.

[2] = tested on: Sox2 and Oct3/4; experiment: qPCR of Sox2 and Oct3/4 in H9 hESCs; format: cell-based, human; settings: 500 nM, 48 hours, hypoxia (1% O2)
Protocol: Culture of the H9 human embryonic cell (hESC) line: To maintain and propagate the hESC line (up to no more than 70 passes), the hESCs are cultured on a monolayer of mouse fibroblasts inactivated with mitomycin C (Sigma Aldrich, Sweden) (Thomson et al., [1998]). To study the transcriptional changes of SOx2 and Oct3/4, the undifferentiated colonies of hESCs were transferred, by mechanical dissociation, to a culture plate coated with a thin layer of Matrigel® and are cultured in the presence of conditioned medium. The conditioned medium is obtained from the culture of confluent and inactivated mouse fibroblasts, seeded on plates coated with gelatin (0.1 %; Sigma).
Using the experimental conditions described in Example 35, the procedure was the same including in this case the TaqMan probes for human Sox2, Oct3/4 and GAPDH (Sox2: Hs01053049_s1; Oct3/4:Hs01895061_u1; GAPDH: Hs99999905_m1). […] The expression levels of both messenger RNAs are induced under hypoxic conditions versus normoxic conditions (high oxygen culture conditions ~ 20% O2),

[3] = tested on: medaka (Oryzias latipes) embryos; experiment: toxicity on medaka embryos; format: in vivo
Protocol: In the first place, for the zebrafish embryos, various experiments were performed with 10, 6 and 4 embryos per well in a volume of 100 microl, in early (between 1 and 8) and late (more than 20) stages of 1 x Yamamoto buffer, culturing the embryos at 26°C for 24 hours, and the compound FM19G11 was subsequently added at concentrations of 10 microM and 50 microM with negative controls without additives to analyze the endogenous mortality of the embryos and with 1% and 5% DMSO (solvent of the compound) to analyze the mortality of the solvent. In all the cases the solvent induced a high lethality between 60% and 90%.
The same experiments were performed using medaka embryos for which DMSO has not lethal effects at concentrations less than 5%. Six embryos per well, a final volume of 100 µl and independent experiments with embryos in blastula and neurula stages were used.
To prevent the possibility that FM19G11 may not be traversing the protective layer of the embryo (chorion), the compound at a concentration of 0.5 mM was microinjected into the chorionic space (between the embryo and the chorion). Experiment 1: n=15, 20% induced mortality, DMSO control = 0%. The result was the same, no anomaly being observed in the development of the embryo, nor any effect on the viability of the injected embryos. The images of Figure 19 show medaka embryos subjected to the treatment with FM19G11 at 50 microM for 4 days (A) 10 medaka embryos in a well of a multi-well plate; B and C, photos of embryos treated with 50 microM FM19G11 for 1 day; and D a photo of a medaka embryo which was not treated with the compound.

[4] = tested on: HT29; experiment: Western blot of DNA damage response proteins in HT29; format: cell-based, human; settings: 0.25 or 0.5 µM, 24 hours
Description: According to the results obtained by the Western blotting technique, FM19G11 triggers a DNA damage response (DDR) in human colon cancer cells (HT29).

[5] = tested on: ATR; experiment: activation kinetics of ATR (Western blot), HCT116/p53-/-; format: cell-based, human; settings: 0.5 µM, after 1 hour
Description: To determine the degree of involvement of p53 in the possible effects caused by FM19G11, a HCT116 colon cancer cell line with expression of p53 and the same HCT116 line in which p53 was inactivated by homologous recombination were used (Bunz, F, Dutriaux, A, Lengauer, C, Waldman, T, Zhou, S, Brown, JP et al., (1998) Requirement for p53 and p21 to sustain G2 arrest after DNA damage. Science 282: 1497-501; Bunz, F, Hwang, PM, Torrance, C, Waldman, T, Zhang, Y, Dillehay, L et al., (1999) Disruption of p53 in human cancer cells alters the responses to therapeutic agents. J Clin Invest 104: 263-9.). The HCT116/p53^+/+ and HCT116/p53^-/- cells were exposed to FM19G11 (0.5 µM) at different times, the phosphorylation (activation) pattern of the ATR protein and of p53 which can be phosphorylated by ATR (Tibbetts, RS, Brumbaugh, KM, Williams, JM, Sarkaria, JN, Cliby, WA, Shieh, SY et al., (1999) A role for ATR in the DNA damage-induced phosphorylation of p53. Genes Dev 13: 152-7.), in p53-proficient HCT116 cells, as well as ATR in p53-deficient cells being analyzed (Figure 23). […] This quick activation of ATR coincides with that of p53 in HCT116/p53^+/+ cells after 1 hour of treatment with FM19G11 (0.5 µM), but the activation of p53 remains virtually on the expression of cells without drug, for the different times analyzed.

For `Cc1ccc(C(=O)COC(=O)c2cccc(NC(=O)c3ccc([N+](=O)[O-])cc3[N+](=O)[O-])c2)cc1` [FM19G11, 2-oxo-2-(p-tolyl)ethyl 3-((2,4-dinitro)benzamido)benzoate], the “transcriptional levels of Hek 293-CRE-LUC” value [1] was “not affected in any case”, the “expression of both Sox2 and Oct3/4 (mRNA)” value [2] was “significantly inhibits” and the induced mortality ([3]; 0.5 mM microinjected into the chorionic space, n=15) was 20%. The “viability of the embryos” value ([3]; 10 microM and 50 microM in the well) was “does not affect the viability”, the lethality ([3]; 10 microM and 50 microM in the well, blastula and neurula stages) was “no significant lethality” and the “phosphorylation of DDR proteins (H2AX, MLH1, MSH6, BRCA1, ATM, ATR, CHK1, CHK2, p53)” value [4] was “efficiently increased the phosphorylation”. For the same compound, the “phosphorylation of ATR” value [5] was “quick increase”.
